According to patent US20220218852A1, “NOVEL RADIOLABELLED CXCR4-TARGETING COMPOUNDS FOR DIAGNOSIS AND THERAPY” (PROVINCIAL HEALTH SERVICES AUTHORITY, priority 2019, published 2022):
Where two headings read alike, the source gives them in different places. Positions of bridges follow the written chain, without caps; N, C: chain ends. Non-standard residues stand in square brackets, D forms with d. Residues, ends and D or L forms follow the SMILES beside them. Groups on a side chain read outwards from the residue. *: point of attachment. DOTA = O=C(O)CN1CCN(CC(=O)O)CCN(CC(=O)*)CCN(CC(=O)O)CC1; 2Nal = N[C@@H](Cc1ccc2ccccc2c1)C(=O)O; Lys(iPr) = CC(C)NCCCC[C@H](N)C(=O)O

Experiments:
[1] = test system: Z138 mantle cell lymphoma xenografts; test: Biodistribution in Z138 tumor-bearing mice; format: in vivo
Protocol: (§1) For Daudi, Z138, GRANTA519 and Jeko1 xenografts, male NOD.Cg-Rag1^tm1MomII2rg^tm1Wjl/SzJ (NRG) mice were subcutaneously inoculated on the left flank with 5×10^6 cells (100 μL; 1:1 ratio of PBS/Matrigel) and tumors were grown to a size of 200-500 mm^3. For PC-3 xenografts, male NOD.Cg-Rag1^tm1MomII2rg^tm1Wjl/SzJ (NRG) mice were subcutaneously inoculated on the left flank with 5×10^6 PC-3 cells (100 μL; 1:1 ratio of PBS/Matrigel) and tumors were grown to a size of 200-400 mm^3.
(§2) The mice were euthanized via CO2 inhalation while anesthetized with isoflurane. Tissues were harvested, washed in PBS, blotted dry, weighed, and measured on a Hidex AMG Automatic Gamma Counter.

[2] = Biodistribution in Z138 tumor-bearing mice; format: in vivo; conditions: male, NOD.Cg-Rag1^tm1MomII2rg^tm1Wjl/SzJ (NRG), mouse, iv, total radioactivity
Protocol: as §1, §2

[3] = blood, read-out: Biodistribution Blood
[4] = bone, read-out: Biodistribution Bone
[5] = brain, read-out: Biodistribution Brain
[6] = fat, read-out: Biodistribution Fat
[7] = intestine, read-out: Biodistribution Intestine

## CC(C)NCCCC[C@@H]1NC(=O)[C@H](Cc2ccc(O)cc2)NC(=O)[C@H](Cc2ccccc2)NC(=O)CC[C@H](C(=O)N[C@@H](CCCCNC(C)C)C(=O)N[C@@H](CCCCNC(=O)[C@H](CCC(=O)O)NC(=O)[C@H](CCC(=O)O)NC(=O)[C@H](CCC(=O)O)NC(=O)CN2CCN(CC(=O)O)CCN(CC(=O)O)CCN(CC(=O)O)CC2)C(N)=O)NC(=O)CNC(=O)[C@H](Cc2ccc3ccccc3c2)NC(=O)[C@@H](CCCNC(=N)N)NC1=O [[^177Lu]Lu-BL02, metal not drawn] (FY[Lys(iPr)][dR][2Nal]G[dE][Lys(iPr)]K([Glu-Glu-Glu-DOTA])-NH2; lactam N-7)
[1]; 1 h
  Ratio Tumour:Blood: 38.98
  Ratio Tumour:Bone: 74.82
  Ratio Tumour:Liver: 18.53
  Ratio Tumour:Lung: 21.08
  Ratio Tumour:Muscle: 166.59
  Ratio Tumour:Spleen: 33.05
[1]; 1 h blocked
  Ratio Tumour:Blood: 2.74
  Ratio Tumour:Bone: 9.53
  Ratio Tumour:Liver: 3.84
  Ratio Tumour:Lung: 2.75
  Ratio Tumour:Muscle: 13.22
  Ratio Tumour:Spleen: 6.87
[1]; 4 h
  Ratio Tumour:Blood: 627.62
  Ratio Tumour:Bone: 145.11
  Ratio Tumour:Liver: 16.93
  Ratio Tumour:Lung: 60.62
  Ratio Tumour:Muscle: 503.09
  Ratio Tumour:Spleen: 49.43
[1]; 24 h
  Ratio Tumour:Blood: 873.49
  Ratio Tumour:Bone: 109.48
  Ratio Tumour:Liver: 12.51
  Ratio Tumour:Lung: 52.72
  Ratio Tumour:Muscle: 463.22
  Ratio Tumour:Spleen: 31.90
[1]; 72 h
  Ratio Tumour:Blood: 613.24
  Ratio Tumour:Bone: 68.39
  Ratio Tumour:Liver: 8.32
  Ratio Tumour:Lung: 21.59
  Ratio Tumour:Muscle: 358.55
  Ratio Tumour:Spleen: 13.86
[2]; blood, 1 h, read-out: Biodistribution Blood
  tissue uptake at 1 h: 0.44 %ID/g
[2]; [3]
  tissue uptake at 4 h: 0.03 %ID/g
  tissue uptake at 24 h: 0.01 %ID/g
  tissue uptake at 72 h: 0.007 %ID/g
[2]; blood, with LY2510924 7.5 μg i.p. 15 min before radiotracer, 1 h blocked, read-out: Biodistribution Blood
  tissue uptake at 1 h: 2.06 %ID/g
[2]; bone, 1 h, read-out: Biodistribution Bone
  tissue uptake at 1 h: 0.25 %ID/g
[2]; [4]
  tissue uptake at 4 h: 0.11 %ID/g
  tissue uptake at 24 h: 0.085 %ID/g
  tissue uptake at 72 h: 0.053 %ID/g
[2]; bone, 1 h blocked, read-out: Biodistribution Bone
  tissue uptake at 1 h: 0.49 %ID/g
[2]; brain, 1 h, read-out: Biodistribution Brain
  tissue uptake at 1 h: 0.02 %ID/g
[2]; brain, 1 h blocked, read-out: Biodistribution Brain
  tissue uptake at 1 h: 0.04 %ID/g
[2]; [5]
  tissue uptake at 4 h: 0.01 %ID/g
  tissue uptake at 24 h: 0.003 %ID/g
  tissue uptake at 72 h: 0.001 %ID/g
[2]; fat, 1 h, read-out: Biodistribution Fat
  tissue uptake at 1 h: 0.07 %ID/g
[2]; [6]
  tissue uptake at 4 h: 0.03 %ID/g
  tissue uptake at 24 h: 0.011 %ID/g
  tissue uptake at 72 h: 0.008 %ID/g
[2]; fat, with LY2510924 7.5 μg i.p. 15 min before radiotracer, 1 h blocked, read-out: Biodistribution Fat
  tissue uptake at 1 h: 0.19 %ID/g
[2]; intestine, 1 h, read-out: Biodistribution Intestine
  tissue uptake at 1 h: 0.27 %ID/g
[2]; intestine, 1 h blocked, read-out: Biodistribution Intestine
  tissue uptake at 1 h: 0.75 %ID/g
[2]; [7]
  tissue uptake at 4 h: 0.09 %ID/g
  tissue uptake at 24 h: 0.126 %ID/g
  tissue uptake at 72 h: 0.023 %ID/g
